Measured values from ChEMBL document CHEMBL4219189, “Designing novel inhibitors against falcipain-2 of Plasmodium falciparum” (Bioorg Med Chem Lett, 2018).
Calls of active or inactive are those of the source. No cut-off for these calls is given here.

Tests used:
[1] = test system: Plasmodium falciparum; assay: Inhibition of chloroquine resistant Plasmodium falciparum RKL9 schizont stage infected in human erythrocytes assessed as reduction in […] growth after 24 hrs by Giemsa staining based assay; type: cell-based; settings: RKL9, 24 h
[2] = test system: Plasmodium falciparum; assay: Inhibition of chloroquine sensitive Plasmodium falciparum MRC-02 schizont stage infected in human erythrocytes assessed as reduction in […] growth after 24 hrs by Giemsa staining based assay; type: cell-based; settings: MRC-02, 24 h
[3] = test system: Plasmodium falciparum; assay: Resistance index, ratio of IC50 for chloroquine sensitive Plasmodium falciparum MRC-02 schizont stage infected in human erythrocytes to IC50 for chloroquine resistant Plasmodium falciparum RKL9 schizont stage infected in human erythrocytes
[4] = test system: Plasmodium berghei; assay: Antimalarial activity against Plasmodium berghei infected in Swiss albino mouse assessed as suppression of parasitaemia at 25 mg/kg/day, po for 4 consecutive days starting from 4 hrs post infection measured on day 4 post last dose by Giemsa staining based microscopic method relative to control; type: functional
[5] = test system: Plasmodium berghei; assay: Antimalarial activity against Plasmodium berghei infected in Swiss albino mouse assessed as increase in mouse survival at 25 mg/kg/day, po for 4 consecutive days starting from 4 hrs post infection measured on day 28 by Giemsa staining based microscopic method; type: functional, organism-based
[6] = test system: Plasmodium berghei; assay: Antimalarial activity against Plasmodium berghei infected in Swiss albino mouse assessed as suppression of parasitaemia at 20 mg/kg/day, po for 4 consecutive days starting from 4 hrs post infection measured on day 4 post last dose by Giemsa staining based microscopic method relative to control; type: functional
[7] = test system: Plasmodium berghei; assay: Antimalarial activity against Plasmodium berghei infected in Swiss albino mouse assessed as increase in mouse survival at 20 mg/kg/day, po for 4 consecutive days starting from 4 hrs post infection measured on day 28 by Giemsa staining based microscopic method; type: functional, organism-based

| SMILES | IC50 [1] [µM] | IC50 [2] [µM] | Ratio IC50 [3] | Activity [4] [%] | Activity [5] | Activity [6] [%] | Activity [7] |
| --- | --- | --- | --- | --- | --- | --- | --- |
| CCN(CC)c1ccc2cc(C3=NNC(c4ccc(O)cc4)C3)c(=O)oc2c1 (centres undefined) | 29.9 | 26.7 | 0.89 | – | – | – | – |
| CCN(CC)c1ccc2cc(C3=NN(C(=O)c4ccccc4)C(c4ccccc4)C3)c(=O)oc2c1 (centres undefined) | > 100 | > 100 | – | – | – | – | – |
| CCN(CC)c1ccc2cc(C3=NN(C(=O)c4ccccc4)C(c4ccc([N+](=O)[O-])cc4)C3)c(=O)oc2c1 (centres undefined) | 2.1 | 3.3 | 1.6 | 62 | inactive | – | – |
| CCN(CC)c1ccc2cc(C3=NNC(c4ccc([N+](=O)[O-])cc4)C3)c(=O)oc2c1 (centres undefined) | 30.4 | 19.7 | 0.64 | – | – | – | – |
| CCN(CC)c1ccc2cc(C3=NN(c4ccccc4)C(c4ccc(Cl)cc4)C3)c(=O)oc2c1 (centres undefined) | 9.1 | 10.4 | 1.1 | 34 | inactive | – | – |
| CCN(CC)c1ccc2cc(C3=NN(C(=O)c4ccccc4)C(c4ccc(Cl)cc4)C3)c(=O)oc2c1 (centres undefined) | > 100 | > 100 | – | – | – | – | – |
| CCN(CC)c1ccc2cc(C3=NN(C(=O)c4ccccc4)C(c4ccc(O)cc4)C3)c(=O)oc2c1 (centres undefined) | 26.7 | 14.3 | 0.53 | – | – | – | – |
| CCN(CC)c1ccc2cc(C3=NNC(c4ccccc4)C3)c(=O)oc2c1 (centres undefined) | > 100 | > 100 | – | – | – | – | – |
| CCN(CC)c1ccc2cc(C3=NN(c4ccccc4)C(c4ccc(F)cc4)C3)c(=O)oc2c1 (centres undefined) | 33.8 | 26.9 | 0.79 | – | – | – | – |
| CCN(CC)c1ccc2cc(C3=NN(C(=O)c4ccccc4)C(c4ccc(F)cc4)C3)c(=O)oc2c1 (centres undefined) | 1.9 | 4.2 | 2.2 | 100 | Active | – | – |
| CCN(CC)c1ccc2cc(C3=NNC(c4ccc(F)cc4)C3)c(=O)oc2c1 (centres undefined) | 44.5 | 34.2 | 0.76 | – | – | – | – |
| CCN(CC)c1ccc2cc(C3=NN(c4ccccc4)C(c4ccc(O)cc4)C3)c(=O)oc2c1 (centres undefined) | 25.3 | 17.5 | 0.69 | – | – | – | – |
| CCN(CC)c1ccc2cc(C3=NNC(c4ccc(Cl)cc4)C3)c(=O)oc2c1 (centres undefined) | 27.1 | 18.6 | 0.68 | – | – | – | – |
| CCN(CC)c1ccc2cc(C3=NN(c4ccccc4)C(c4ccccc4)C3)c(=O)oc2c1 (centres undefined) | > 100 | > 100 | – | – | – | – | – |
| CCN(CC)CCCC(C)Nc1ccnc2cc(Cl)ccc12 (centres undefined) [CHLOROQUINE] | – | – | – | – | – | 100 | Active |
| CCN(CC)c1ccc2cc(C3=NN(c4ccccc4)C(c4ccc([N+](=O)[O-])cc4)C3)c(=O)oc2c1 (centres undefined) | 41.6 | 20.9 | 0.5 | – | – | – | – |
